Columns and labels:
U937 = U937 cells, Butler et al., 2006, cited from earlier work
IL-6 = test: Serum interleukin 6 after on-pump coronary artery bypass grafting surgery, Elafin versus placebo; type: in vivo, human; conditions: 200 mg i.v. infusion
Description: (§1) 44 Patients undergoing on-pump coronary artery bypass grafting surgery received a 200 mg dose of Elafin in 250 mL of normal saline by intravenous infusion that was started at first skin incision and completed at least 20 min before cardiopulmonary bypass commenced. A second group of 42 patients undergoing the same surgical procedure received 250 ml normal saline (placebo) per infusion instead.
Blood was drawn from patients and from the blood samples serum was prepared. Serum levels of interleukin 6 were determined by the use of a Human Interleukin 6 Immunoassay (R&D Systems Europe, Abingdon, UK) according to the instructions of the manufacturer. This assay employs the quantitative sandwich enzyme immunoassay technique. A monoclonal antibody specific for IL-6 has been pre-coated onto a microplate. Interleukin 6 standards and samples were pipetted into wells and any IL-6 present was bound by an immobilized antibody. After washing away any unbound substances, an enzyme-linked polyclonal antibody specific for IL-6 was added to the wells. Following a wash to remove any unbound antibody-enzyme reagent, a substrate solution was added to the wells. After an incubation period, an amplifier solution was added to the wells and color developed in proportion to the amount of IL-6 bound in the initial step. The color development was stopped and the intensity of the color is measured.

C-reactive protein (CRP) = test: Serum C-reactive protein after on-pump coronary artery bypass grafting surgery, Elafin versus placebo; type: in vivo, human; conditions: 200 mg i.v. infusion, time point 6 h
Description: as §1
Blood was drawn from patients and from the blood samples serum was prepared. Serum levels of the inflammatory marker C-reactive protein (CRP) at time point 6 h were measured (FIG. 4).

[1] = test system: troponin I release from cardiomyocytes; test: Plasma cTroponin I after coronary artery bypass grafting surgery, randomized double-blinded trial, Elafin versus placebo; type: in vivo, human; conditions: 200 mg i.v. infusion at start of surgery
Description: Patients undergoing coronary artery bypass grafting surgery were treated with either intravenous infusion of a 200 mg dose of Elafin in 250 mL of normal saline (Elafin group, n=44) or 250 mL of normal saline (placebo group, n=42) in a randomized, double-blinded clinical trial. The intravenous infusion was started at first skin incision and completed at least 20 min before cardiopulmonary bypass commenced.
Blood samples were taken at baseline (time 0, skin incision) and at 2, 6, 24 and 48 h post-operatively. Plasma cTroponin I concentrations were quantified with the Abbott Architect highly-sensitive assay (Abbott Laboratories, ILL) according to the manufacturer's instructions. This assay has a sensitivity of 0.01 ng/mL or less, with a 10% coefficient of variation of 0.032 ng/mL and a 99th percentile (male and female) of 0.012 ng/mL. cTroponin I is a regulatory protein of cardiomyocyte contraction and its presence in blood plasma is a specific indication of cardiomyocyte injury.

[2] = rats; cited from earlier work
20 S proteasome = conditions: Butler et al., 2006; cited from earlier work

Elafin: recombinant human protein of 57 amino acids (SEQ ID NO:1), reversible tight binding inhibitor of elastase and proteinase 3 (AQEPVKGPVSTKPGSCPIILIRCAMLNPPNRCLKDTDCPGIKKCCEGSCGMACFVPQ; listed as Homo sapiens)
LPS-induced activation of the transcription factors AP-1 and NF-κB (U937): inhibited | production of macrophage chemokine MCP-1 (CCL2) (U937; LPS): inhibition | effect on serum level of IL-6 (postoperative rise) (IL-6): no effect | effect on serum level of IL-6 (postoperative rise) (IL-6; listed as elafin): not affected | effect on serum level of CRP (postoperative rise) (C-reactive protein (CRP)): no effect | effect on serum level of CRP (postoperative rise) (C-reactive protein (CRP); listed as elafin): not affected | reduction of troponin I release 6 hours after commencement of surgery ([1]; 6 h): significant reduction | overall reduction of the Troponin I release (area under the curve) over 48 hours, in words ([1]; AUC 0-48 h): overall reduction | overall reduction of the troponin I release over 48 hours (area under the curve) ([1]; AUC 0-48 h): 20-40% | side effects after intravenous administration [2]: without any side effects | inhibition of peptidase activities associated with the 20 S proteasome (20 S proteasome): no inhibition

From patent US20230285524A1, “USE OF ELAFIN FOR DISORDERS ASSOCIATED WITH ELASTASE INDEPENDENT INCREASE IN TROPONIN” (tiakis Biotech AG, priority 2014, published 2023)
